# Data taken from PubChem BioAssay (NCI).
# Several values for one entry are separate records, joined by “and”; a condition that tells them apart may be missing. Equal entries are not always repeated.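 Protocol summary: plate cells (96-well), add compound at 5 concentrations, incubate 48 h, interpolate endpoints linearly. GI50 = concentration required for 50% inhibition of growth. TGI: concentration producing complete growth inhibition.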
# Assays:
# Test in all cases: NCI-60 cell line screen, 48 h
# [1] = tested on: A549 NSCLC
# [2] = tested on: KM12 colon
# [3] = tested on: ACHN renal
# [4] = tested on: SK-MEL-2 melanoma
# [5] = tested on: K-562 leukemia
# [6] = tested on: SK-MEL-28 melanoma
# [7] = tested on: MDA-N
# [8] = tested on: NCI-H460 lung
# [9] = tested on: DU-145 prostate
# [10] = tested on: HS 578T breast
SMILES,TGI [1],TGI [2],TGI [3],TGI [4],TGI [5],TGI [6],TGI [7],TGI [8],GI50 [2],GI50 [4],GI50 [5],GI50 [9],TGI [9],GI50 [6],GI50 [8],TGI [10]
Cc1ccc(-c2c(C#N)c(-c3ccc(Cl)cc3)c(C#N)c(=O)n2NS(=O)(=O)c2ccc(C)cc2)cc1,82.3 µM,80.6 µM,> 100 µM,40.4 µM,> 100 µM,> 100 µM,> 100 µM,> 100 µM,–,–,–,–,–,–,–,–
CNc1ccc(C(=O)CC(O)CCC(C)C2OC(=O)CC(O)CC(=O)CC(O)CC(O)CC(O)CC(O)CC3(O)CC(O)C(C(=O)OC)C(CC(O[C@@H]4O[C@H](C)[C@@H](O)[C@H](N)[C@@H]4O)/C=C/C=C/C=C/C=C/C=C/C=C/C=C/C2C)O3)cc1 (stereo partly drawn),–,12.4 µM,–,8.86 µM,40.2 µM,2.53 µM,–,10.1 µM,3.9 µM,3.59 µM,5.05 µM,1.85 µM,3.55 µM,1.12 µM,2.97 µM,–
O=C1/C(=C/c2ccc([N+](=O)[O-])cc2)C(=O)N(c2ccccc2)C1c1ccccc1 (stereo not drawn),> 10 µM,> 10 µM,> 10 µM,> 10 µM,–,> 10 µM,> 10 µM,> 10 µM,–,–,–,–,> 10 µM,–,–,> 10 µM
Cc1cccc(N=NC(=O)NNc2cccc(C)c2C)c1C,> 100 µM,–,95.7 µM,46.7 µM,> 100 µM,> 100 µM,> 100 µM,> 100 µM,–,–,–,–,> 100 µM,–,–,–
Cc1cc(S(=O)(=O)N=C2N(Cc3ccccc3)CCN2Cc2ccccc2)c(S)cc1Cl,> 100 µM,> 100 µM,–,–,> 100 µM,> 100 µM,> 100 µM,> 100 µM,–,–,–,–,> 100 µM,–,–,> 100 µM
C=CC(CCc1ccc(C(=O)OCC)cc1)c1c(N)nc(N)[nH]c1=O (stereo not drawn),> 100 µM,> 100 µM,–,> 100 µM,> 100 µM,> 100 µM,> 100 µM,> 100 µM,–,–,–,–,> 100 µM,–,–,> 100 µM
CCOC(=O)CNc1c(OCc2ccccc2)c(=O)c1=O,> 100 µM,> 100 µM,> 100 µM,> 100 µM,> 100 µM,> 100 µM,> 100 µM,–,–,–,–,–,> 100 µM,–,–,> 100 µM
O=C(NI1OC(=O)c2ccccc21)c1ccc(Cl)cc1,> 100 µM,> 100 µM,> 100 µM,> 100 µM,> 100 µM,> 100 µM,–,> 100 µM,–,–,–,–,> 100 µM,–,–,–
NC(N)=N/N=C/c1c[nH]c2ccccc12,> 100 µM,> 100 µM,> 100 µM,> 100 µM,> 100 µM,> 100 µM,–,> 100 µM,–,–,–,–,–,–,–,–
COc1cc(/C=C(\C#N)C(N)=O)cc(Br)c1O,> 100 µM,> 100 µM,–,> 100 µM,> 100 µM,> 100 µM,–,> 100 µM,–,–,32.1 µM and 43.2 µM,–,–,–,–,–
Cn1c2c(c3ccccc31)CC1c3c(c4ccccc4n3C)CC21 (stereo not drawn),> 100 µM,> 100 µM,> 100 µM,–,> 100 µM,> 100 µM,> 100 µM,> 100 µM,–,–,–,–,> 100 µM,–,–,> 100 µM
CCOc1cn(C2CC(O)C(CO)O2)c(=O)[nH]c1=O (stereo not drawn),> 100 µM,> 100 µM,> 100 µM,> 100 µM,–,> 100 µM,> 100 µM,> 100 µM,–,–,–,–,> 100 µM,–,–,> 100 µM
